The source of these data is patent publication US20140288044A1, “COMPOSITIONS AND THERAPEUTIC USES OF IKK-RELATED KINASE EPSILON AND TANKBINDING KINASE 1 INHIBITORS” (Alzheimer's Institute of America, Inc., priority 2011, published 2014).

Each structure is given as a SMILES string. Like-named read-outs stand apart in the source and are kept apart here.

This assay concerns the target T1, IKKε (Homo sapiens, UniProt Q14164).
T1 construct: His-tag (in-house Sf9 preparation) or GST-tag (purchased Invitrogen preparation); these are alternatives, not both on one protein; host or cells: Sf9 cells
T1 sequence (Q14164 1-716): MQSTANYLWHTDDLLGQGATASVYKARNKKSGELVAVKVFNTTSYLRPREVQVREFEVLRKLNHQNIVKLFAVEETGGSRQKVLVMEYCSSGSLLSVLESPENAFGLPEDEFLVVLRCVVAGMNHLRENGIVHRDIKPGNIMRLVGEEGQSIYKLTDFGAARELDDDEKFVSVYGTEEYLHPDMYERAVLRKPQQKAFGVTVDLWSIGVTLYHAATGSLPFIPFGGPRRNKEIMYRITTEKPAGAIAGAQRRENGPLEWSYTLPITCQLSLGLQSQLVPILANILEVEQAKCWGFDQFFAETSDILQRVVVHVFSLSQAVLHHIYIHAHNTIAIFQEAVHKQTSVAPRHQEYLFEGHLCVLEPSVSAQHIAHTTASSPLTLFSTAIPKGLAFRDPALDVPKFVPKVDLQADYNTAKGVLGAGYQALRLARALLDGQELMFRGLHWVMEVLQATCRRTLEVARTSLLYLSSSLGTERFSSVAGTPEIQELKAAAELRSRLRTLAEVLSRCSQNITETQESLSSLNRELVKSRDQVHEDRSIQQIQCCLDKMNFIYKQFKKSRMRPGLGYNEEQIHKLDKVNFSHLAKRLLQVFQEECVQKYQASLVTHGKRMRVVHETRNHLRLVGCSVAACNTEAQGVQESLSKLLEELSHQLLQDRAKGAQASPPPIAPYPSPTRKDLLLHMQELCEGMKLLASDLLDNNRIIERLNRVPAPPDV
Nature of the assay: In-vitro IKKε kinase assay (radiolabelled ATP, filterplate). It is filed as biochemical. On the procedure: IKKε enzyme was produced as a His-tag fusion in Sf9 cells or purchased as a GST-tag fusion (Invitrogen, Carlsbad, Calif.). TBK1 enzyme was produced as a His-tag fusion in Sf9 cells. Kinase reactions were carried out in reaction buffer using myelin basic protein (Millipore, Ballerica, Mass.), casein or dephosphorylated casein (Sigma, St. Louis, Mo.) as substrate at an ATP concentration equal to twice the Km,ATP value for each enzyme, corresponding to 32 μM ATP for IKKε and 60 μM ATP for TBK1. Radiolabelled [γ^33]ATP (PerkinElmer, Waltham, Mass.) in the amount of […] (IKKe, “normal”) or 0.7 μCi (IKKε, “sensitized”) or 1.25 μCi (TBK1) was added to each assay. Final enzyme concentrations were 0.1 or 0.015 μg/ml (IKKε) and 0.1 or 0.02 μg/ml (TBK1) for the “normal” and “sensitized” assay, respectively, and “sensitized” assays were conducted using only dephosphorylated casein as substrate. Test compounds (or DMSO solvent as a control) were added prior to initiation of the reactions. Reactions were terminated after 30-45 minutes by adding 3% phosphoric acid. Terminated reactions were transferred to P-81 cellulose phosphate filterplates (Whatman, Inc., Piscataway, N.J.) and washed with 1% phosphoric acid on a vacuum apparatus. After air drying, scintillant (PerkinElmer, Waltham, Mass.) was added and the plates were read on a PerkinElmer TopCount NXT instrument. Counts were normalized to DMSO controls after background subtraction.

The mark [1] stands for this setting: "sensitized" assay, read-out: IC50, inhibition of the kinase activity of IKKε.
The mark [2] stands for this setting: in-vitro IKKε kinase inhibition assays, given as 0.005 μM (5 nM), read-out: IKKε kinase inhibitory activity (IC50 value).

As usually defined, the IC50 is the concentration that gives 50% inhibition. For `CCN(CC)c1ccc(Nc2nccc(-c3ccc(OC4CCOCC4)c(C#N)c3)n2)cn1` [Example Compound 9, 5-(2-{[6-(Diethylamino)pyridin-3-yl]amino}pyrimidin-4-yl)-2-(tetrahydro-2H-pyran-4-yloxy)benzonitrile], the IC50 under setting [1] was less than 5 nM and the concentration for half-maximal inhibition (IC50) under setting [2] is less than 5 nM.

Turning to `CN(C)c1ccc(Nc2nccc(-c3ccc(OC4CCOCC4)c(C#N)c3)n2)cn1` [Example Compound 10, 5-(2-{[6-(Dimethylamino)pyridin-3-yl]amino}pyrimidin-4-yl)-2-(tetrahydro-2H-pyran-4-yloxy)benzonitrile], the concentration for half-maximal inhibition (IC50) under setting [1] was less than 5 nM and the IC50 under setting [2] was less than 5 nM.

Take `N#Cc1cc(-c2ccnc(Nc3cncc(C(=O)NCCO)c3)n2)ccc1OC1CCOCC1` [Example Compound 13, 5-({4-[3-Cyano-4-(tetrahydro-2H-pyran-4-yloxy)phenyl]pyrimidin-2-yl}amino)-N-(2-hydroxyethyl)pyridine-3-carboxamide]: the half-inhibitory concentration (IC50) under setting [2] is less than 5 nM.

For the compound `N#Cc1cc(-c2ccnc(Nc3cncc(CN4CCOCC4)c3)n2)ccc1OC1CCOCC1` [Example Compound 21, 5-(2-{[5-(Morpholin-4-ylmethyl)pyridin-3-yl]amino}pyrimidin-4-yl)-2-(tetrahydro-2H-pyran-4-yloxy)benzonitrile], the IC50 under setting [2] was less than 5 nM.

For the compound `COCCNCc1cncc(Nc2nccc(-c3ccc(OC4CCOCC4)c(C#N)c3)n2)c1` [Example Compound 22, 5-{2-[(5-{[(2-Methoxyethyl)amino]methyl}pyridin-3-yl)amino]pyrimidin-4-yl}-2-(tetrahydro-2H-pyran-4-yloxy)benzonitrile], under setting [2], the IC50 was less than 5 nM.

For the compound `COc1cncc(Nc2nccc(-c3ccc(OC4CCOCC4)c(C#N)c3)n2)c1` [Example Compound 27, 5-{2-[(5-Methoxypyridin-3-yl)amino]pyrimidin-4-yl}-2-(tetrahydro-2H-pyran-4-yloxy)benzonitrile], the IC50 runs as follows: under setting [1], less than 5 nM; under setting [2], less than 5 nM.

Take `N#Cc1cc(-c2ccnc(Nc3ccc(C(=O)N4CCC4)nc3)n2)ccc1OC1CCOCC1` [Example Compound 30, 5-(2-{[6-(Azetidin-1-ylcarbonyl)pyridin-3-yl]amino}pyrimidin-4-yl)-2-(tetrahydro-2H-pyran-4-yloxy)benzonitrile]: the IC50 under setting [1] is less than 5 nM and the IC50 under setting [2] was less than 5 nM.

As for `COC(=O)c1ccc(Nc2nccc(-c3ccc(OC4CCOCC4)c(C#N)c3)n2)cn1` [Example Compound 33, Methyl 5-({4-[3-cyano-4-(tetrahydro-2H-pyran-4-yloxy)phenyl]pyrimidin-2-yl}amino)pyridine-2-carboxylate], the half-inhibitory concentration (IC50) was less than 5 nM under setting [1] and less than 5 nM under setting [2].

`COC(=O)c1cc(Nc2nccc(-c3ccc(OC4CCOCC4)c(C#N)c3)n2)ccn1` [Example Compound 36, Methyl 4-({4-[3-cyano-4-(tetrahydro-2H-pyran-4-yloxy)phenyl]pyrimidin-2-yl}amino)pyridine-2-carboxylate]: the half-inhibitory concentration (IC50) under setting [2] was less than 5 nM.

For the compound `COCCNc1cc(Nc2nccc(-c3ccc(OC4CCOCC4)c(C#N)c3)n2)ccn1` [Example Compound 38, 5-[2-({2-[(2-Methoxyethyl)amino]pyridin-4-yl}amino)pyrimidin-4-yl]-2-(tetrahydro-2H-pyran-4-yloxy)benzonitrile], under setting [2], the IC50 was less than 5 nM.

As for `COC1CCN(c2cc(Nc3nccc(-c4ccc(OC5CCOCC5)c(C#N)c4)n3)ccn2)C1` (centres unmarked) [Example Compound 39, 5-(2-{[2-(3-Methoxypyrrolidin-1-yl)pyridin-4-yl]amino}pyrimidin-4-yl)-2-(tetrahydro-2H-pyran-4-yloxy)benzonitrile], the half-maximal inhibitory concentration (IC50) by setting is: under setting [1], less than 5 nM; under setting [2], less than 5 nM.

For `N#Cc1cc(-c2ccnc(Nc3ccnc(N4CCC[C@H]4CO)c3)n2)ccc1OC1CCOCC1` [Example Compound 40, 5-[2-({2-[(2S)-2-(Hydroxymethyl)pyrrolidin-1-yl]pyridin-4-yl}amino)pyrimidin-4-yl]-2-(tetrahydro-2H-pyran-4-yloxy)benzonitrile], the IC50 is less than 5 nM under setting [1] and less than 5 nM under setting [2].

As for `N#Cc1cc(-c2ccnc(Nc3ccc(N4CC(O)C4)nc3)n2)ccc1OC1CCOCC1` [Example Compound 46, 5-(2-{[6-(3-Hydroxyazetidin-1-yl)pyridin-3-yl]amino}pyrimidin-4-yl)-2-(tetrahydro-2H-pyran-4-yloxy)benzonitrile], the 50% inhibitory concentration (IC50) under setting [2] is less than 5 nM.

Consider `CN(Cc1ccc(Nc2nccc(-c3ccc(OC4CCOCC4)c(C#N)c3)n2)cn1)S(C)(=O)=O` [Example Compound 55, N-{[5-({4-[3-Cyano-4-(tetrahydro-2H-pyran-4-yloxy)phenyl]pyrimidin-2-yl}amino)pyridin-2-yl]methyl}-N-methylmethanesulfonamide], for which the 50% inhibitory concentration (IC50) under setting [2] is less than 5 nM.

For `CN(Cc1ccc(Nc2nccc(-c3ccc(OC4CCOCC4)c(C#N)c3)n2)cn1)C(=O)C(C)(C)O` [Example Compound 56, N-{[5-({4-[3-Cyano-4-(tetrahydro-2H-pyran-4-yloxy)phenyl]pyrimidin-2-yl}amino)pyridin-2-yl]methyl}-2-hydroxy-N,2-dimethylpropanamide], the IC50 under setting [2] was less than 5 nM.

In the case of `CC(O)c1ccc(Nc2nccc(-c3ccc(OC4CCOCC4)c(C#N)c3)n2)cn1` (centres unmarked) [Example Compound 61, 5-(2-{[6-(1-Hydroxyethyl)pyridin-3-yl]amino}pyrimidin-4-yl)-2-(tetrahydro-2H-pyran-4-yloxy)benzonitrile], under setting [2], the IC50 was less than 5 nM.

Turning to `CC(=O)c1ccc(Nc2nccc(-c3ccc(OC4CCOCC4)c(C#N)c3)n2)cn1` [Example Compound 62, 5-{2-[(6-Acetylpyridin-3-yl)amino]pyrimidin-4-yl}-2-(tetrahydro-2H-pyran-4-yloxy)benzonitrile], the IC50 under setting [2] is less than 5 nM.

Take `N#Cc1cc(-c2ccnc(Nc3ccnc(CO)c3)n2)ccc1OC1CCOCC1` [Example Compound 66, 5-(2-{[2-(Hydroxymethyl)pyridin-4-yl]amino}pyrimidin-4-yl)-2-(tetrahydro-2H-pyran-4-yloxy)benzonitrile]: the IC50 under setting [2] was less than 5 nM.

Turning to `N#Cc1cc(-c2ccnc(Nc3ccc(CNC(=O)N4CCOCC4)nc3)n2)ccc1OC1CCOCC1` [Example Compound 67, N-{[5-({4-[3-Cyano-4-(tetrahydro-2H-pyran-4-yloxy)phenyl]pyrimidin-2-yl}amino)pyridin-2-yl]methyl}morpholine-4-carboxamide], under setting [2], the concentration for half-maximal inhibition (IC50) was less than 5 nM.

For the compound `CC(=O)NCc1ccc(Nc2nccc(-c3ccc(OC4CCOCC4)c(C#N)c3)n2)cn1` [Example Compound 68, N-{[5-({4-[3-Cyano-4-(tetrahydro-2H-pyran-4-yloxy)phenyl]pyrimidin-2-yl}amino)pyridin-2-yl]methyl}acetamide], under setting [2], the IC50 was less than 5 nM.

With `COC1CN(Cc2cc(Nc3nccc(-c4ccc(OC5CCOCC5)c(C#N)c4)n3)ccn2)C1` [Example Compound 69, 5-[2-({2-[(3-Methoxyazetidin-1-yl)methyl]pyridin-4-yl}amino)pyrimidin-4-yl]-2-(tetrahydro-2H-pyran-4-yloxy)benzonitrile], the IC50 under setting [2] is less than 5 nM.

Consider `CN(C)c1ccc(-c2ccc(Nc3nccc(-c4ccc(OC5CCOCC5)c(C#N)c4)n3)cn2)cn1` [Example Compound 81, 5-(2-{[6′-(Dimethylamino)-2,3′-bipyridin-5-yl]amino}pyrimidin-4-yl)-2-(tetrahydro-2H-pyran-4-yloxy)benzonitrile], for which the IC50 runs as follows: under setting [1], less than 5 nM; under setting [2], less than 5 nM.

`N#Cc1cc(-c2ccnc(Nc3cncc(N4CCOCC4)n3)n2)ccc1OC1CCOCC1` [Example Compound 89, 5-(2-{[6-(Morpholin-4-yl)pyrazin-2-yl]amino}pyrimidin-4-yl)-2-(tetrahydro-2H-pyran-4-yloxy)benzonitrile]: the IC50 was less than 5 nM under setting [1] and less than 5 nM under setting [2].
